Source: ChEMBL document CHEMBL1153701, “Synthesis and evaluation of antiallodynic and anticonvulsant activity of novel amide and urea derivatives of valproic acid analogues” (2009)
Calls of active or inactive are those of the source. The calls are words filed in the database; no cut-off is given here.

How the values were obtained:
Mus musculus [1] = test: Neurotoxicity in CF1 mouse assessed as protection against motor impairment at 100 mg/kg, ip after 4 hrs by rotarod test; type: functional, organism-based; set-up: dose 100 mg/kg
Mus musculus [2] = test: Antiepileptic activity in CF1 mouse assessed as inhibition of maximal electroshock-induced seizures at 30 mg/kg, ip after 4 hrs; type: functional, organism-based; set-up: dose 30 mg/kg
Mus musculus [3] = test: Neurotoxicity in CF1 mouse assessed as protection against motor impairment at 30 mg/kg, ip after 4 hrs by rotarod test; type: functional, organism-based; set-up: dose 30 mg/kg
Mus musculus [4] = test: Antiepileptic activity in CF1 mouse assessed as inhibition of maximal electroshock-induced seizures at 300 mg/kg, ip after 4 hrs; type: functional, organism-based; set-up: dose 300 mg/kg
Mus musculus [5] = test: Neurotoxicity in CF1 mouse assessed as protection against motor impairment at 300 mg/kg, ip after 0.5 hrs by rotarod test; type: functional, organism-based; set-up: dose 300 mg/kg
Mus musculus [6] = test: Antiepileptic activity in CF1 mouse assessed as inhibition of subcutaneous pentylenetetrazole-induced seizures at 30 mg/kg, ip after 0.5 hrs; type: functional, organism-based; set-up: dose 30 mg/kg
Mus musculus [7] = test: Antiepileptic activity in CF1 mouse assessed as inhibition of subcutaneous pentylenetetrazole-induced seizures at 100 mg/kg, ip after 4 hrs; type: functional, organism-based; set-up: dose 100 mg/kg
Mus musculus [8] = test: Antiepileptic activity in CF1 mouse assessed as inhibition of maximal electroshock-induced seizures at 100 mg/kg, ip after 4 hrs; type: functional, organism-based; set-up: dose 100 mg/kg
Mus musculus [9] = test: Neurotoxicity in CF1 mouse assessed as protection against motor impairment at 30 mg/kg, ip after 0.5 hrs by rotarod test; type: functional, organism-based; set-up: dose 30 mg/kg
Mus musculus [10] = test: Antiepileptic activity in CF1 mouse assessed as inhibition of subcutaneous pentylenetetrazole-induced seizures at 100 mg/kg, ip after 0.5 hrs; type: functional, organism-based; set-up: dose 100 mg/kg
Mus musculus [11] = test: Neurotoxicity in CF1 mouse assessed as protection against motor impairment at 100 mg/kg, ip after 0.5 hrs by rotarod test; type: functional, organism-based; set-up: dose 100 mg/kg
Mus musculus [12] = test: Antiepileptic activity in CF1 mouse assessed as inhibition of maximal electroshock-induced seizures at 100 mg/kg, ip after 0.5 hrs; type: functional, organism-based; set-up: dose 100 mg/kg
Mus musculus [13] = test: Antiepileptic activity in CF1 mouse assessed as inhibition of maximal electroshock-induced seizures at 30 mg/kg, ip after 0.5 hrs; type: functional, organism-based; set-up: dose 30 mg/kg
Mus musculus [14] = test: Antiepileptic activity in ip dosed CF1 mouse assessed as inhibition of subcutaneous pentylenetetrazole-induced seizures; type: functional
Mus musculus [15] = test: Antiepileptic activity in CF1 mouse assessed as inhibition of subcutaneous pentylenetetrazole-induced seizures at 30 mg/kg, ip after 4 hrs; type: functional, organism-based; set-up: dose 30 mg/kg
Rattus norvegicus [16] = test: Anticonvulsant activity in albino Sprague-Dawley rat assessed as protection against pilocarpine-induced seizure at 75 mg/kg, ip; type: functional, organism-based; set-up: dose 75 mg/kg
Mus musculus [17] = test: Antiepileptic activity in CF1 mouse assessed as inhibition of maximal electroshock-induced seizures at 300 mg/kg, ip after 0.5 hrs; type: functional, organism-based; set-up: dose 300 mg/kg
Rattus norvegicus [18] = test: Anticonvulsant activity in albino Sprague-Dawley rat assessed as protection against pilocarpine-induced seizure at 37.5 mg/kg, ip; type: functional, organism-based; set-up: dose 37.5 mg/kg
Rattus norvegicus [19] = species: Rattus norvegicus; test: Ratio of ED50 for antiallodynic activity in rat assessed as protection against spinal nerve ligation-induced neuropathic pain to ED50 for antiepileptic activity in rat by maximal electroshock-induced seizures assay; type: functional
Mus musculus [20] = test: Neurotoxicity in CF1 mouse assessed as protection against motor impairment at 300 mg/kg, ip after 4 hrs by rotarod test; type: functional, organism-based; set-up: dose 300 mg/kg
Mus musculus [21] = test: Antiepileptic activity in CF1 mouse assessed as inhibition of subcutaneous pentylenetetrazole-induced seizures at 300 mg/kg, ip after 0.5 hrs; type: functional, organism-based; set-up: dose 300 mg/kg
Rattus norvegicus [22] = test: Anticonvulsant activity in ip dosed albino Sprague-Dawley rat assessed as protection against pilocarpine-induced seizure treated after 30 mins of pilcarpine challenge; type: functional; settings: 0.5 h
Rattus norvegicus [23] = test: Antiallodynic activity in ip dosed rat assessed as protection against spinal nerve ligation-induced neuropathic pain; type: functional
Mus musculus [24] = test: Antiepileptic activity in CF1 mouse assessed as inhibition of subcutaneous pentylenetetrazole-induced seizures at 300 mg/kg, ip after 4 hrs; type: functional, organism-based; set-up: dose 300 mg/kg
Rattus norvegicus [25] = test: Anticonvulsant activity in albino Sprague-Dawley rat assessed as protection against pilocarpine-induced seizure at 100 mg/kg, ip; type: functional, organism-based; set-up: dose 100 mg/kg
Mus musculus [26] = test: Antiepileptic activity in ip dosed CF1 mouse assessed as inhibition of maximal electroshock-induced seizures; type: functional
Rattus norvegicus [27] = test: Antiallodynic activity in rat assessed as protection against spinal nerve ligation-induced neuropathic pain at 80 mg/kg, ip after 240 mins; type: functional, organism-based; set-up: dose 80 mg/kg
Rattus norvegicus [28] = test: Anticonvulsant activity in albino Sprague-Dawley rat assessed as protection against pilocarpine-induced seizure at 200 mg/kg, ip; type: functional, organism-based; set-up: dose 200 mg/kg
Rattus norvegicus [29] = test: Anticonvulsant activity in ip dosed albino Sprague-Dawley rat assessed as protection against pilocarpine-induced seizure; type: functional
Rattus norvegicus [30] = test: Antiallodynic activity in rat assessed as protection against spinal nerve ligation-induced neuropathic pain at 80 mg/kg, ip after 120 mins; type: functional, organism-based; set-up: dose 80 mg/kg
Rattus norvegicus [31] = test: Anticonvulsant activity in albino Sprague-Dawley rat assessed as protection against pilocarpine-induced seizure at 200 mg/kg, ip treated after 30 mins of pilcarpine challenge; type: functional, organism-based; set-up: dose 200 mg/kg
Rattus norvegicus [32] = test: Antiallodynic activity in rat assessed as protection against spinal nerve ligation-induced neuropathic pain at 80 mg/kg, ip after 180 mins; type: functional, organism-based; set-up: dose 80 mg/kg
Rattus norvegicus [33] = test: Antiallodynic activity in rat assessed as protection against spinal nerve ligation-induced neuropathic pain at 80 mg/kg, ip after 30 mins; type: functional, organism-based; set-up: dose 80 mg/kg
Rattus norvegicus [34] = test: Antiallodynic activity in rat assessed as protection against spinal nerve ligation-induced neuropathic pain at 80 mg/kg, ip after 60 mins; type: functional, organism-based; set-up: dose 80 mg/kg

SMILES | Activity (Mus musculus [1]) | Activity (Mus musculus [2]) | Activity (Mus musculus [3]) | Activity (Mus musculus [4]) | Activity (Mus musculus [5]) | Activity (Mus musculus [6]) | Activity (Mus musculus [7]) | Activity (Mus musculus [8]) | Activity (Mus musculus [9]) | Activity (Mus musculus [10]) | Activity (Mus musculus [11]) | Activity (Mus musculus [12]) | Activity (Mus musculus [13]) | Activity (Mus musculus [15]) | Activity (Mus musculus [17]) | ratio (Rattus norvegicus [19]) | Activity (Mus musculus [20]) | Activity (Mus musculus [21]) | ED50 (Rattus norvegicus [23]) [mg/kg] | Activity (Mus musculus [24]) | further results
CCCCC(CC)C(N)=O (stereo unspecified) | inactive | inactive | inactive | inactive | Active | inactive | inactive | inactive | inactive | inactive | inactive | Active | inactive | inactive |  |  |  |  |  |  | ED50 (Mus musculus [14]): 103 mg/kg
CCC(C)C(CC)C(=O)NC(N)=O (stereo unspecified) [CAPURIDE] | inactive | inactive | inactive | Active | Active | inactive | inactive | inactive |  | Active | Active | Active | inactive | inactive | Active | 0.49 | Active | Active | 49 | Active | Activity (Rattus norvegicus [16]): Active; Activity (Rattus norvegicus [18]): Active; ED50 (Rattus norvegicus [22]): 23 mg/kg
CC(C)(C)CC(=O)NC(N)=O | inactive | inactive | inactive | inactive | Active | inactive | inactive | inactive | inactive |  |  | inactive | inactive | inactive | Active | 0.86 | inactive | Active | 74 | inactive | Activity (Rattus norvegicus [25]): Active; ED50 (Mus musculus [26]): 64 mg/kg
CCC(C(N)=O)C(C)(C)C (stereo unspecified) | inactive | inactive | inactive | Active |  | inactive | inactive | inactive | inactive | inactive | inactive | inactive | inactive | inactive | inactive |  | inactive | Active |  | inactive | Activity (Rattus norvegicus [27]): inactive; Activity (Rattus norvegicus [28]): Active; ED50 (Rattus norvegicus [29]): 257 mg/kg; ED97 (Rattus norvegicus [29]): 451 mg/kg
CCCC(C(=O)NC(N)=O)C(C)C (stereo unspecified) |  | inactive |  | Active |  | inactive | inactive | inactive |  | Active |  | inactive | inactive | inactive | inactive |  | inactive | Active |  | inactive | Activity (Rattus norvegicus [30]): inactive; Activity (Rattus norvegicus [31]): Active; Activity (Rattus norvegicus [32]): inactive; Activity (Rattus norvegicus [33]): inactive; Activity (Rattus norvegicus [34]): inactive
